# Source: PubChem BioAssay AID2060487 (Molecular Pharmacology Branch, DTP, NCI, 2025)
# Where “and” joins values, the source holds several entries; their conditions need not be identical. Equal values may be shown once.
# Test system: 997537-175-T-J1-PDC complex spheroid viability
# Test: Anticancer human tumor 997537-175-T-J1-PDC patient-derived colon adenocarcinoma cell line growth inhibition [GQUAD]
# Details: for viability, T/C: stronger effect = lower value
# Excerpt: DNA G-quadruplex Stabilizer Agents in Combinations in Complex Spheroids
# A high-throughput screen of multi-cell type tumor spheroids was designed to identify active combinations of DNA G-quadruplex stabilizer agents and targeted small molecules. Complex spheroids include a stromal component modeled by human endothelial cells (HUVEC) and fibroblasts modeled by human mesenchymal stem cells (MSCs). The concentration ranges selected for each drug and investigational agent were based upon clinically achievable concentrations if the clinical Cmax of the agent was known.
# Compounds. The drugs and investigational agents: pidnarulex (CX-5461; NSC782164), APTO-253 (NSC789042), BRACO-19 (NSC847499), peposertib (NSC802822), ceralasertib (NSC780249), elimusertib (NSC800525), camonsertib (NSC841442), AZD-1390 (NSC803789), olaparib (NSC753686), talazoparib (NSC767125), ART-558 (NSC835418), sotorasib (NSC818433), MRTX-1133 (NSC836407), SN-38 (NSC673596), topotecan (NSC609699), etoposide (NSC141540), doxorubicin (NSC123127), gemcitabine (NSC613327), 5-fluorouracil (NSC19893), paclitaxel (NSC125973), vemurafenib (NSC761431), panobinostat (NSC761190), R-306465 (JNJ-16241199; NSC773264), adavosertib (NSC754352), TP-3654 (NSC805149), carboplatin (NSC241240), KSQ-4279 (NSC840948), and staurosporine (NSC755774) were obtained from the National Cancer Institute (NCI) Developmental Therapeutics Program Chemical Repository (34). The FDA-approved anticancer drug set is available from the NCI Developmental Therapeutics Program. […] The stock solutions were prepared in dimethyl sulfoxide (DMSO, Sigma-Aldrich, St. Louis, MO, cat. D2650) at 800-fold the tested concentration and stored at -70 degrees C prior to their use. All drugs and investigational agents were tested over a range starting from a high concentration at or near the clinical Cmax and decreasing in half-log increments. If the clinical Cmax for an agent had not been determined, the highest concentration tested was 10 microM.
# 2.3 Cell Culture. All cells were maintained in an incubator at 37 degrees C and 5% CO2 with 95% humidity. The PDC lines were cultured according to standard operating procedures established by the NCI PDMR. All PDCs were thawed and cultured in Matrigel-coated flasks prepared with a working solution of 1X Ham's F-12 nutrient mix, without supplementation (Invitrogen, cat. 11765054), 100 U/mL penicillin-streptomycin (Invitrogen, cat. 15140122), and 2.5% Matrigel (Corning Inc., cat. 354248) for the first three passages. The 857933-349-R-J2-PDC line was cultured in 6C/Colon 1B media, which includes advanced DMEM/F-12 (Thermo Fisher Scientific, cat. 12634028), 10 mM HEPES (Thermo Fisher Scientific, cat. 15630080), 1X GlutaMAX supplement (Thermo Fisher Scientific, cat. 35050061), 0.1 mg/mL primocin (InvivoGen, cat. ant-pm-2), 10% defined fetal bovine serum, heat inactivated (HyClone Laboratories Inc., cat. SH30070.03HI), 50% L-WRN conditioned media (ATCC, cat. CRL-3276), 1.25 mM N-Acetyl-L-cysteine (Sigma-Aldrich, cat. A9165), 10 mM nicotinamide (Sigma-Aldrich, cat. N0636), 1X B-27 supplement (Thermo Fisher Scientific, cat. 17504044), 1X N-2 supplement (Thermo Fisher Scientific, cat. 17502048), 10 microM Y-27632 dihydrochloride (Tocris Bioscience, cat. 1254), and 50 ng/mL human EGF recombinant protein (Thermo Fisher Scientific, cat. PHG0311). The 485176-168-R4-J1-PDC line was cultured in Panc media, which includes all 6C/Colon 1B media components plus 100 ng/mL human FGF-10 (Thermo Fisher Scientific, cat. 100-26), 500 nM SB-431542 (Selleckchem, cat. S1067), and gastrin (Tocris, cat. 3006).
# […]
# [1] = curve of first compound, second compound 0.0316 µM
# [2] = curve of first compound, second compound 0.1 µM
# [3] = curve of first compound, second compound 0.316 µM
# [4] = curve of first compound, second compound 1 µM
# [5] = curve of first compound, second compound 3.16 µM
# [6] = curve of first compound, second compound 10 µM
# [7] = second compound 0.0316 µM, first compound 0.0316 µM
# [8] = second compound 0.0316 µM, first compound 0.1 µM
# [9] = second compound 0.0316 µM, first compound 0.316 µM
# [10] = second compound 0.0316 µM, first compound 1 µM
# [11] = second compound 0.0316 µM, first compound 3.16 µM
# [12] = second compound 0.0316 µM, first compound 10 µM
# [13] = second compound 0.1 µM, first compound 0.0316 µM
# [14] = second compound 0.1 µM, first compound 0.1 µM
# [15] = second compound 0.1 µM, first compound 0.316 µM
# [16] = second compound 0.1 µM, first compound 1 µM
# [17] = second compound 0.1 µM, first compound 3.16 µM
# [18] = second compound 0.1 µM, first compound 10 µM
# [19] = second compound 0.316 µM, first compound 0.0316 µM
# [20] = second compound 0.316 µM, first compound 0.1 µM
# [21] = second compound 0.316 µM, first compound 0.316 µM
# [22] = second compound 0.316 µM, first compound 1 µM
# [23] = second compound 0.316 µM, first compound 3.16 µM
# [24] = second compound 0.316 µM, first compound 10 µM
# [25] = second compound 1 µM, first compound 0.0316 µM
# [26] = second compound 1 µM, first compound 0.1 µM
# [27] = second compound 1 µM, first compound 0.316 µM
# [28] = second compound 1 µM, first compound 1 µM
# [29] = second compound 1 µM, first compound 3.16 µM
# [30] = second compound 1 µM, first compound 10 µM
# [31] = second compound 3.16 µM, first compound 0.0316 µM
# [32] = second compound 3.16 µM, first compound 0.1 µM
# [33] = second compound 3.16 µM, first compound 0.316 µM
# [34] = second compound 3.16 µM, first compound 1 µM
# [35] = second compound 3.16 µM, first compound 3.16 µM
# [36] = second compound 3.16 µM, first compound 10 µM
# [37] = second compound 10 µM, first compound 0.0316 µM
# [38] = second compound 10 µM, first compound 0.1 µM
# [39] = second compound 10 µM, first compound 0.316 µM
# [40] = second compound 10 µM, first compound 1 µM
# [41] = second compound 10 µM, first compound 3.16 µM
# [42] = second compound 10 µM, first compound 10 µM
# 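Further: spheroids exposed to the agents for 7 days.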
# 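Wherever viability, T/C is given: 100% = DMSO vehicle control viability.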
structure (smiles),measurement,setting,value
COc1cc(C2c3cc4c(cc3C(OC3OC5COC(C)OC5C(O)C3O)C3COC(=O)C23)OCO4)cc(OC)c1O (stereo unspecified) + Cc1cnc(CNC(=O)c2c(=O)c3ccc(N4CCCN(C)CC4)nc3n3c2sc2ccccc23)cn1,IC50,[1],> 10 µM
same,IC50,[2],> 10 µM
same,IC50,[3],5.74 µM
same,IC50,[4],> 10 µM
same,IC50,[5],> 10 µM
same,IC50,[6],> 10 µM
same,"viability, T/C",[7],113%
same,"viability, T/C",[8],97.7%
same,"viability, T/C",[9],101%
same,"viability, T/C",[10],60.2%
same,"viability, T/C",[11],78.6%
same,"viability, T/C",[12],53%
same,"viability, T/C",[13],109%
same,"viability, T/C",[14],96.5%
same,"viability, T/C",[15],84.9%
same,"viability, T/C",[16],71.3%
same,"viability, T/C",[17],63.2%
same,"viability, T/C",[18],76.7%
same,"viability, T/C",[19],78%
same,"viability, T/C",[20],109%
same,"viability, T/C",[21],104%
same,"viability, T/C",[22],89.1%
same,"viability, T/C",[23],60%
same,"viability, T/C",[24],40.9%
same,"viability, T/C",[25],88.1%
same,"viability, T/C",[26],84.1%
same,"viability, T/C",[27],97.3%
same,"viability, T/C",[28],101%
same,"viability, T/C",[29],75.3%
same,"viability, T/C",[30],63.3%
same,"viability, T/C",[31],62.1%
same,"viability, T/C",[32],99.2%
same,"viability, T/C",[33],104%
same,"viability, T/C",[34],86.2%
same,"viability, T/C",[35],76.4%
same,"viability, T/C",[36],50.7%
same,"viability, T/C",[37],71.4%
same,"viability, T/C",[38],84.9%
same,"viability, T/C",[39],106%
same,"viability, T/C",[40],98.5%
same,"viability, T/C",[41],88.6%
same,"viability, T/C",[42],69.5%
Nc1ccn(C2OC(CO)C(O)C2(F)F)c(=O)n1 (stereo unspecified) + CN(C)c1ccc(Nc2c3ccc(NC(=O)CCN4CCCC4)cc3nc3cc(NC(=O)CCN4CCCC4)ccc23)cc1,IC50,[1],> 10 µM
same,IC50,[2],> 10 µM
same,IC50,[3],> 10 µM
same,IC50,[4],9.28 µM
same,IC50,[5],> 10 µM
same,IC50,[6],> 10 µM
same,"viability, T/C",[7],99.1%
same,"viability, T/C",[8],104%
same,"viability, T/C",[9],110%
same,"viability, T/C",[10],64.1%
same,"viability, T/C",[11],70.2%
same,"viability, T/C",[12],69.5%
same,"viability, T/C",[13],96.3%
same,"viability, T/C",[14],98.5%
same,"viability, T/C",[15],97.1%
same,"viability, T/C",[16],72.3%
same,"viability, T/C",[17],88.3%
same,"viability, T/C",[18],68.8%
same,"viability, T/C",[19],81.7%
same,"viability, T/C",[20],97.8%
same,"viability, T/C",[21],74.5%
same,"viability, T/C",[22],74%
same,"viability, T/C",[23],96.8%
same,"viability, T/C",[24],77.6%
same,"viability, T/C",[25],66.7%
same,"viability, T/C",[26],86.9%
same,"viability, T/C",[27],79.9%
same,"viability, T/C",[28],87.5%
same,"viability, T/C",[29],110%
same,"viability, T/C",[30],47.5%
same,"viability, T/C",[31],55.6%
same,"viability, T/C",[32],80.3%
same,"viability, T/C",[33],79.7%
same,"viability, T/C",[34],81%
same,"viability, T/C",[35],84.5%
same,"viability, T/C",[36],66.2%
same,"viability, T/C",[37],84%
same,"viability, T/C",[38],85.1%
same,"viability, T/C",[39],84.7%
same,"viability, T/C",[40],89.5%
same,"viability, T/C",[41],80.8%
same,"viability, T/C",[42],63.5%
C=CCn1c(=O)c2cnc(Nc3ccc(N4CCN(C)CC4)cc3)nc2n1-c1cccc(C(C)(C)O)n1,"viability, T/C",compound 0.0316 µM,95.7% and 89.4% and 112%
same,"viability, T/C",compound 0.1 µM,75.6% and 101% and 92.2%
same,"viability, T/C",compound 0.316 µM,81.8% and 88.3% and 92.2%
same,"viability, T/C",compound 1 µM,80.2% and 84.5% and 79.4%
same,"viability, T/C",compound 3.16 µM,73.2% and 44.9% and 49.3%
same,"viability, T/C",compound 10 µM,28.9% and 30.8% and 24.2%
same,IC50,curve of compound,5.75 µM and 2.73 µM and 3.53 µM
